# ChEMBL document CHEMBL1201862, “PubChem BioAssay data set” (2004)
# Activity calls are given as the source filed them.
# Key:
# [1] = target: T1, Short transient receptor potential channel 4 (Mus musculus, UniProt Q9QUQ5); assay: mouse TRPC4 channel inhibitors, dose response, cell-based, HEK293 TRPC4/mu-opioid, Fluo-4 calcium (AID 434942); format: functional;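 note: potency of inhibitors blocking the TRPC4 calcium response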
# T1 sequence (Q9QUQ5 whole entry): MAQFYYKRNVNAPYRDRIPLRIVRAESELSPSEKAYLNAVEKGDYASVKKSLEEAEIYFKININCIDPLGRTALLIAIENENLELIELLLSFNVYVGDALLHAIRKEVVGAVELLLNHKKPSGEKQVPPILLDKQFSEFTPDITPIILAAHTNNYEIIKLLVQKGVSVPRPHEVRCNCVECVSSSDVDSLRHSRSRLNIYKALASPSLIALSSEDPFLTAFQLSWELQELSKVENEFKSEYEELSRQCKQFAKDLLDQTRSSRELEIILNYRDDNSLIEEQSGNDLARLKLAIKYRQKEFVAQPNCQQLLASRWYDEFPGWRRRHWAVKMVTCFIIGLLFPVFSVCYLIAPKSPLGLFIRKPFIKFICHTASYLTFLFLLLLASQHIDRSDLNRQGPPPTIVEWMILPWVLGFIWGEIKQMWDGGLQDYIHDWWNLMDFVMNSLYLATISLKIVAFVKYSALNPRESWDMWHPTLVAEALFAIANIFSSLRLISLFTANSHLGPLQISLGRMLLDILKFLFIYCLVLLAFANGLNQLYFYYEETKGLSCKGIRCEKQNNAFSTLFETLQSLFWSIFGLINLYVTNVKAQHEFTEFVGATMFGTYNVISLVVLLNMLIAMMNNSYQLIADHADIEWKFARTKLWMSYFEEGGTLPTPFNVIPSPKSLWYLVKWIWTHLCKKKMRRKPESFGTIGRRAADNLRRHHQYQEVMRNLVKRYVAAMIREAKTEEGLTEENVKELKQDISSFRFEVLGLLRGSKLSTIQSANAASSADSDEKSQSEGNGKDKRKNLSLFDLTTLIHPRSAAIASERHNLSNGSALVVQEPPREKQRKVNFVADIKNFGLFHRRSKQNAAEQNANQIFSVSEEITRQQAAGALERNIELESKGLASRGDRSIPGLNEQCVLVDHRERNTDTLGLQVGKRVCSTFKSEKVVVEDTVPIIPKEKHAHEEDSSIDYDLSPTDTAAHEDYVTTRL
# Genome polyprotein = Genome polyprotein (dengue virus type 2, UniProt P29990); assay: Dengue-2 NS5 methyltransferase inhibitors, primary screen, biochemical, confirmation dose response (AID 588689); format: functional
# Genome polyprotein, sequence (P29990 2492-3391 limits assumed): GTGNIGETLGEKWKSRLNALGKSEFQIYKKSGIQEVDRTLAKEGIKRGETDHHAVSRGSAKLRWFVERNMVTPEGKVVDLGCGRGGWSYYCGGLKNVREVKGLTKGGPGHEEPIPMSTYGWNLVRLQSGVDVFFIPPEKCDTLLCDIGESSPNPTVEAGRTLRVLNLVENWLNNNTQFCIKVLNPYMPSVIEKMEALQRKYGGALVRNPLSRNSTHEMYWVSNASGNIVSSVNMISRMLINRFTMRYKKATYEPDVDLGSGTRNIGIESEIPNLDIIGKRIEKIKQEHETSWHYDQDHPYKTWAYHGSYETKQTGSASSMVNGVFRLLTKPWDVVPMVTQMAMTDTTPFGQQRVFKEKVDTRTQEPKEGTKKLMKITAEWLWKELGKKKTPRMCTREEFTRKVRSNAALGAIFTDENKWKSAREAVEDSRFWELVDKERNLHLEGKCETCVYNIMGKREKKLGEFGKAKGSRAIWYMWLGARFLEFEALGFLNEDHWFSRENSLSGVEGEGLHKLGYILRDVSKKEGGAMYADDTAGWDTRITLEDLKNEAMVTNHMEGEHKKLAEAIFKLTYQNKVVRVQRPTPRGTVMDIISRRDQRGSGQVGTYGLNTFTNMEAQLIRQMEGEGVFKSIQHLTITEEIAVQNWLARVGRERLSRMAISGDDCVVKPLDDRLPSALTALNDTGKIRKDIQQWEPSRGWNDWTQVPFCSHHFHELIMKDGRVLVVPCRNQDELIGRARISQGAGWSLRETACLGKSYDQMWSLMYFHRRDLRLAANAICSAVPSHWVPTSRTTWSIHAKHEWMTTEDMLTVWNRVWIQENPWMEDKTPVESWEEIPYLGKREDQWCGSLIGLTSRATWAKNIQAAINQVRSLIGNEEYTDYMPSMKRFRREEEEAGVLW
# [2] = growth suppression of beta-catenin-knockout colon cells, dose response, cell-based, HCT116, human colon tumor (AID 1045); format: functional;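 note: HCT116 colon tumor cells with beta catenin knocked out; cells exposed to compound for 60 hours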
# [3] = target: T2, Apoptotic protease-activating factor 1 (Homo sapiens, UniProt O14727); format: functional
# T2 sequence (O14727 whole entry): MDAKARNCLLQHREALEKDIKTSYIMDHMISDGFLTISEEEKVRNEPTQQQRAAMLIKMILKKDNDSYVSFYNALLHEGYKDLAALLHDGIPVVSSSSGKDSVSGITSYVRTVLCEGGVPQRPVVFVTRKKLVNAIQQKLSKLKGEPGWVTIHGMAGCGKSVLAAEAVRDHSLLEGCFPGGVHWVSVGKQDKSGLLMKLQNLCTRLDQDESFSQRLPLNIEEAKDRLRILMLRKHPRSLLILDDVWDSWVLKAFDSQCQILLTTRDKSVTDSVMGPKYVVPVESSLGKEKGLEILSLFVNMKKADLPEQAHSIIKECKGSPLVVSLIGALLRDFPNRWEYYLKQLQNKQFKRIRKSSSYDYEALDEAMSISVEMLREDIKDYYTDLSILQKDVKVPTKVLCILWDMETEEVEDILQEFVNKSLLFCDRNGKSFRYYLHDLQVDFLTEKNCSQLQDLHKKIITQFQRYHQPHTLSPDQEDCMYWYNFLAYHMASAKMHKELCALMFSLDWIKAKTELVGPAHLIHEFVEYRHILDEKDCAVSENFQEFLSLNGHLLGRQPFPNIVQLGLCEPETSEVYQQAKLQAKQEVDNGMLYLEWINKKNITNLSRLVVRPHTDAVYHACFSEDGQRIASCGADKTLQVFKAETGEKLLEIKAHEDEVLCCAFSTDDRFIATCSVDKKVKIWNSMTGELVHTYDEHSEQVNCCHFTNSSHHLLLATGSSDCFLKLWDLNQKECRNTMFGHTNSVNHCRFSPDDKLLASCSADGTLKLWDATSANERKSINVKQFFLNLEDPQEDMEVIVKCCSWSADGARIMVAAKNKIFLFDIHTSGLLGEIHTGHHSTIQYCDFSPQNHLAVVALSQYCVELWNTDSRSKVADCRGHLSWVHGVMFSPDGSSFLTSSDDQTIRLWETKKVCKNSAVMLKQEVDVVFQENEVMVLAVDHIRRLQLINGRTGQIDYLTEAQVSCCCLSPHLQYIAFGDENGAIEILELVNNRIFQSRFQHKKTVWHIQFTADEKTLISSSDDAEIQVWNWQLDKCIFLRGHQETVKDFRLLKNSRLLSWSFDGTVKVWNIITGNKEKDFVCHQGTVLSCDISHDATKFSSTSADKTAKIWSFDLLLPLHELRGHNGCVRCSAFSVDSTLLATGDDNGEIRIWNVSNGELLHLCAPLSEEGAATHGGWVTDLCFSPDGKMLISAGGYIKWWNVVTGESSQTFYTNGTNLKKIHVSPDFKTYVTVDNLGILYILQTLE
# [4] = target: Photoreceptor-specific nuclear receptor (Homo sapiens, UniProt Q9Y5X4); format: functional, cell-based;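 note: CHO-S cells with Gal4-NCOR and VP16-NR2E3 two-hybrid luciferase reporter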
# Photoreceptor-specific nuclear receptor, sequence (Q9Y5X4 whole entry, the tested form may be a part): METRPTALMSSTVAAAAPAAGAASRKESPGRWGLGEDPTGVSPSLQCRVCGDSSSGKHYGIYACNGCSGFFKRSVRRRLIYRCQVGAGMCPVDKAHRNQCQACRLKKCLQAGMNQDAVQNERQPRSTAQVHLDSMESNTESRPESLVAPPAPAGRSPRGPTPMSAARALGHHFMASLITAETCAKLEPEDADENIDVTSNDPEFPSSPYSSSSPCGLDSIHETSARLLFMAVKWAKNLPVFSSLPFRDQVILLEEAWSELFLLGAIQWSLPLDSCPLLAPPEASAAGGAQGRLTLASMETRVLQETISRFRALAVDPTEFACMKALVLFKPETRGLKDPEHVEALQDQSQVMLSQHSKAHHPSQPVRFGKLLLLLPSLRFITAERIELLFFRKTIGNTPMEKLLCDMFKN
# [5] = cytotoxicity in HEK-293T cells, dose response, cytotoxicity control for TCR NF-kB inhibitor project, luminescence, T-cell screen hits (AID 489026); format: functional, cell-based;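 note: cells exposed to compound about 14 hours before the viability readout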
# HEK293 [6] = assay: cells; format: functional, cell-based; settings: Homo sapiens
# HEK293 [7] = assay: NOD1 signaling inhibitors, primary screen, cell-based, luminescence, uHTS (AID 1578); format: functional; settings: Homo sapiens
# HEK293 [8] = assay: cells; format: functional, cell-based; settings: Homo sapiens; remark: listed apart in the source
# Paired box protein Pax-8 = Paired box protein Pax-8 (Homo sapiens, UniProt Q06710); assay: inhibitors of PAX8-driven TPO luciferase reporter, dose response, RMG-I cells, cherry-pick (AID 687027); format: functional, cell-based;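 note: luciferase reporter driven by Pax8 target thyroperoxidase promoter measured by SteadyGlo luminescence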
# Paired box protein Pax-8, sequence (Q06710 whole entry): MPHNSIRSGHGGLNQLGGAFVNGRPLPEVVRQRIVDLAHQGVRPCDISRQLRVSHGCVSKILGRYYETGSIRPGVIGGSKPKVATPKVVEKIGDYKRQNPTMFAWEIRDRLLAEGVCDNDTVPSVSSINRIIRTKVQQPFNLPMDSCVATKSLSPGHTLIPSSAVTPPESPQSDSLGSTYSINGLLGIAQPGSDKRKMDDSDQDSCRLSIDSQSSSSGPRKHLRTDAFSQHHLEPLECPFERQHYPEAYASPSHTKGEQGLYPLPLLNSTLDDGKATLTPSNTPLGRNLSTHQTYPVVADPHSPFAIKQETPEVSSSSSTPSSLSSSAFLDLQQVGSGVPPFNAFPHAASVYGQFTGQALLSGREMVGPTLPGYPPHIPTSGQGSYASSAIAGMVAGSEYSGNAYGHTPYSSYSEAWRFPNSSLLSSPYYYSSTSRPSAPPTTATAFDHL
# [9] = target: UDP-galactopyranose mutase (Mycobacterium tuberculosis, UniProt P9WIQ1); assay: Inhibitors of Mycobacterium tuberculosis UDP-galactopyranose mutase (UGM) enzyme Measured in Biochemical System Using Plate Reader - 2105-02_Inhibitor_Dose_CherryPick_Activity. [Related pubchem assays (depositor defined):AID504439]
# UDP-galactopyranose mutase, sequence (P9WIQ1 whole entry): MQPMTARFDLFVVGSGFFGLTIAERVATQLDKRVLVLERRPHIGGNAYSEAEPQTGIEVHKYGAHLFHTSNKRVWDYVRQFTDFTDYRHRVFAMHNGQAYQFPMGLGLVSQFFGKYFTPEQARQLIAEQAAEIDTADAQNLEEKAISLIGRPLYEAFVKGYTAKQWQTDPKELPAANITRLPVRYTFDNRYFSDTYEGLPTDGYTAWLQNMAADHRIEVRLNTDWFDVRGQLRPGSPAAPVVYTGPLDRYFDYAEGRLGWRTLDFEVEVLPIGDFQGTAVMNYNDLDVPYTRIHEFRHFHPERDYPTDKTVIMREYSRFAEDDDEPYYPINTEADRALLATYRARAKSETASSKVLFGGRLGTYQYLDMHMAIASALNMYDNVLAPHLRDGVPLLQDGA
smiles,measurement,setting,value
CC(C)c1ccc(S(=O)(=O)/N=C2\C=C(NS(=O)(=O)c3ccccc3)C(=O)c3ccccc32)cc1,EC50,[1],7.5 µM (active)
same,IC50,Genome polyprotein,25.7 µM (active)
COc1ccc(CNC(=O)c2c(C)oc3c2C(=O)c2ccccc2C3=O)cc1,EC50,[2],13.9 µM (active)
same,IC50,[3],23.1 µM (active)
same,IC50,[4],1.21 µM (active)
same,IC50,[5],21.5 µM (inactive)
CCSc1nsc(NC(=O)Nc2cccc(F)c2)n1,IC50,HEK293 [6],3.7 µM (active)
same,EC50,HEK293 [7],3.22 µM (active)
same,IC50,HEK293 [8],10.8 µM (active)
same,AC50,Paired box protein Pax-8,5.73 µM (active)
O=[N+]([O-])c1ccc(/C=N/n2cnc3ccccc32)s1,AC50,[9],148 µM (active)
